Results as given in patent US6335451B1, “Five-membered heterocycles having biphenylsulfonyl substitution, with sulfonylcyanamide side chain, compositions containing them, and methods of using them” (Hoechst Aktiengesellschaft, priority 1997, dated 2002).

How the values were obtained:
[1] = tested on: Na+-dependent Cl−/HCO3− exchanger (NCBE); test: Inhibition of the Na+-dependent Cl−/HCO3− exchanger (NCBE) in human endothelial cells (pHi recovery, BCECF fluorescence, FLIPR); assay type: cell-based; details: inhibitor concentration of 10 μM; human endothelial cells (ECV-304); relative to 100% and 0% pHi recovery controls, 50 μM HOE 642 present
Description: Inhibition of the Na^+-dependent Cl^−/HCO3^− exchanger (NCBE) in human endothelial cells
Human endothelial cells (ECV-304) were detached from culture bottles with the aid of trypsin/EDTA buffer (0.05/0.02% in phosphate buffer) and, after centrifugation (100 g, 5 min), taken up in a buffered salt solution (mmol/l: 115 NaCl, 20 NH4Cl, 5 KCl, 1 CaCl2, 1 MgSO4, 20 N-(2-hydroxyethyl)piperazine-N′-2-ethanesulfonic acid (HEPES), 5 glucose and 1 g/l of bovine serum albumin; pH 7.4). This cell suspension was incubated at 37° C. for 20 min with 5 μM BCECF-acetoxymethyl ester. The cells were then washed and resuspended in a sodium- and bicarbonate-free buffer solution (mmol/l: 5 HEPES, 133.8 choline chloride, 4.7 KCl, 1.25 MgCl2, 0.97 K2HPO4, 0.23 KH2PO4, 5 glucose; pH 7.4).
For subsequent fluorescence measurement in an FLIPR (Fluorescent Imaging Plate Reader) 100 μl of this cell suspension having 20,000 cells in each case were pipetted per well into a 96-well microtiter plate and this microtiter plate was centrifuged (100 g, 5 min).
In the FLIPR, 100 μl of buffer solution in each case were then removed from a further pretreated microtiter plate and pipetted into each of the 96 wells of the measurement plate. A bicarbonate- and sodium-containing buffer solution (mmol/l: 5 HEPES, 93.8 NaCl, 40 NaHCO3, 4.7 KCl, 1.25 CaCl2, 1.25 MgCl2, 0.97 Na2HPO4, 0.23 NaH2PO4, 5 glucose; pH 7.4) which contained 50 μM HOE 642 was used for a 100% control, i.e. a recovery of the intracellular pH (pHi) via the NCBE. For a 0% control, i.e. no pHi recovery at all, the bicarbonate-free, sodium-containing buffer solution (mmol/l: 5 HEPES, 133.8 NaCl, 4.7 KCl, 1.25 CaCl2, 1.25 MgCl2, 0.97 Na2HPO4, 0.23 NaH2PO4, 5 glucose; pH 7.4) was employed, to which 50 μM HOE 642 were likewise added. The compounds according to the invention were added to the sodium- and bicarbonate-containing solution in various concentrations.
After addition of the buffer solutions to the dye-loaded, acidified cells in the measurement plate, the rise in the fluorescence intensity which corresponded to a rise in the pHi in each well of the microtiter plate was determined. The kinetics were in this case recorded at 35° C. for a period of 2 minutes.
The increase in the fluorescence intensities for different concentrations of the compounds according to the invention was related to the two controls and from this inhibitory action of the substances was determined.
Residual Activity of the NCBE at an Inhibitor Concentration of 10 μM

| SMILES | melting point | Residual activity in % (residual activity of the NCBE) [1] [%] |
| --- | --- | --- |
| CCCCc1nc(SC)c(C(=O)OCC)n1Cc1ccc(-c2ccccc2S(=O)(=O)NC#N)cc1 [Example 1, Ethyl 2-butyl-5-methylsulfanyl-3-(2′-cyanoaminosulfonyl-biphenyl-4-ylmethyl)-3H-imidazole-4-carboxylate] | 111 °C (dec.) | 17.7 |
| CCCCc1nc(SC)c(C(=O)OC(C)C)n1Cc1ccc(-c2ccccc2S(=O)(=O)NC#N)cc1 [Example 20, Isopropyl 2-butyl-5-methylsulfanyl-3-(2′-cyanoaminosulfonylbiphenyl-4-ylmethyl)-3H-imidazole-4-carboxylate] | 113 °C (dec.) | 19.5 |
| CCCCc1nc(OC)c(C#N)n1Cc1ccc(-c2ccccc2S(=O)(=O)NC#N)cc1 [Example 14, 4′-(2-Butyl-5-cyano-4-methoxyimidazol-1-ylmethyl)biphenyl-2-sulfonylcyanamide] | 160 °C (dec.) | 47.3 |
| N#CNS(=O)(=O)c1ccccc1-c1ccc(Cn2c(-c3c(F)cccc3F)nc(Cl)c2C=O)cc1 [Example 38, 4′-[4-Chloro-5-formyl-2-(2,6-difluorphenyl)-imidazole-1-ylmethyl]-biphenyl-2-sulfonylcyanamide] | 164 to 178 °C | 8.6 |
| CCOC(=O)c1c(SC)nc(C2CC2)n1Cc1ccc(-c2ccccc2S(=O)(=O)NC#N)cc1 [Example 10, Ethyl 2-cyclopropyl-5-methylsulfanyl-3-(2′-cyanoaminosulfonylbiphenyl-4-ylmethyl)-3H-imidazole-4-carboxylate] | > 260 °C | 21.6 |
| CCCCc1nc(SC)c(C(=O)OCC)n1Cc1ccc(-c2ccc(S(=O)(=O)NC#N)cc2C)cc1 [Example 22, Ethyl 2-butyl-3-(2′-methyl-4′-cyanoaminosulfonylbiphenyl-4-yl-methyl)-5-methylsulfanyl-3H-imidazole-4-carboxylate] | 211 °C | 34.2 |
| CCCCc1ncc(C(=O)OCC)n1Cc1ccc(-c2ccccc2S(=O)(=O)NC#N)cc1 [Example 13, Ethyl 2-butyl-3-(2′-cyanoaminosulfonylbiphenyl-4-ylmethyl)-3H-imidazole-4-carboxylate] | 121 °C (dec.) | 89.5 |
| COc1ccc(-c2nc(Cl)c(C=O)n2Cc2ccc(-c3ccccc3S(=O)(=O)NC#N)cc2)cc1 [Example 37, 4′-[4-Chloro-5-formyl-2-(4-methoxyphenyl)-imidazole-1-ylmethyl]-biphenyl-2-sulfonylcyanamide] | 110 to 126 °C | 16.8 |
| CCCCc1nc(SC)c(C(=O)OCC)n1Cc1ccccc1-c1ccccc1S(=O)(=O)NC#N [Example 7, Ethyl 2-butyl-5-methylsulfanyl-3-(2′-cyanoaminosulfonyl-biphenyl-2-ylmethyl)-3H-imidazole-4-carboxylate] | 105 °C (dec.) | 72.1 |
| CCCCc1nc(Cl)c(C=O)n1Cc1ccc(-c2ccccc2S(=O)(=O)NC#N)cc1 [Example 15, 4′-(2-Butyl-4-chloro-5-formylimidazol-1-ylmethyl)biphenyl-2-sulfonylcyanamide] | 135 °C (dec.) | 55.7 |

Second part, led by results:

| melting point | SMILES | Residual activity in % (residual activity of the NCBE) [1] [%] |
| --- | --- | --- |
| 94 °C (dec.) | CCOC(=O)c1c(SC)nc(CC)n1Cc1ccc(-c2ccccc2S(=O)(=O)NC#N)cc1 [Example 17, Ethyl 2-ethyl-5-methylsulfanyl-3-(2′-cyanoaminosulfonylbiphenyl-4-ylmethyl)-3H-imidazole-4-carboxylate] | 39.1 |
| 276 °C (dec.) | CCOC(=O)c1c(SC)nc(C(C)C)n1Cc1ccc(-c2ccccc2S(=O)(=O)NC#N)cc1 [Example 19, Ethyl 2-isopropyl-5-methylsulfanyl-3-(2′-cyanoaminosulfonylbiphenyl-4-ylmethyl)-3H-imidazole-4-carboxylate] | 21.5 |
| 120 °C (dec.) | CCCCc1nc(SC)c(C(=O)OCC)n1Cc1cccc(-c2ccc(S(=O)(=O)NC#N)cc2)c1 [Example 6, Ethyl 2-butyl-5-methylsulfanyl-3-(4′-cyanoaminosulfonyl-biphenyl-3-ylmethyl)-3H-imidazole-4-carboxylate] | 58.6 |
| 169 °C (dec.) | CCOC(=O)c1c(SC)nc(C)n1Cc1ccc(-c2ccccc2S(=O)(=O)NC#N)cc1 [Example 18, Ethyl 2-methyl-5-methylsulfanyl-3-(2′-cyanoaminosulfonylbiphenyl-4-ylmethyl)-3H-imidazole-4-carboxylate] | 45.8 |
| 112 °C (dec.) | CCCCc1nc(SC)c(C(=O)OCC)n1Cc1cccc(-c2cccc(S(=O)(=O)NC#N)c2)c1 [Example 5, Ethyl 2-butyl-5-methylsulfanyl-3-(3′-cyanoaminosulfonyl-biphenyl-3-ylmethyl)-3H-imidazole-4-carboxylate] | 43.2 |
| 108 °C (dec.) | CCCCc1nc(SC)c(C(=O)OCC)n1Cc1ccccc1-c1cccc(S(=O)(=O)NC#N)c1 [Example 8, Ethyl 2-butyl-5-methylsulfanyl-3-(3′-cyanoaminosulfonyl-biphenyl-2-ylmethyl)-3H-imidazole-4-carboxylate] | 60.8 |
| 165 °C (dec.) | CCCc1nc(SC)c(C(=O)OCC)n1Cc1ccc(-c2ccccc2S(=O)(=O)NC#N)cc1 [Example 16] | 11.5 |
| 160 to 187 °C | N#CNS(=O)(=O)c1ccccc1-c1ccc(Cn2c(-c3ccc(Cl)cc3)nc(Cl)c2C=O)cc1 [Example 36, 4′-[4-Chloro-5-formyl-2-(4-chlorphenyl)-imidazole-1-ylmethyl]-biphenyl-2-sulfonylcyanamide] | 7.8 |
| 115 °C (dec.) | CCCCc1nc(SC)c(C(=O)OCC)n1Cc1cccc(-c2ccc(S(=O)(=O)NC#N)cc2C)c1 [Example 25, Ethyl 2-butyl-3-(2′-methyl-4′-cyanoaminosulfonylbiphenyl-3-yl-methyl)-5-methylsulfanyl-3H-imidazole-4-carboxylate] | 70.8 |
| 127 °C (dec.) | CCCCc1nc(SC)c(C(=O)OCC)n1Cc1ccc(-c2cc(S(=O)(=O)NC#N)ccc2C)cc1 [Example 21, Ethyl 2-butyl-3-(2′-methyl-5′-cyanoaminosulfonylbiphenyl-4-yl-methyl)-5-methylsulfanyl-3H-imidazole-4-carboxylate] | 42.6 |
| 118 °C (dec.) | CCCCc1nc(SC)c(C(=O)OCC)n1Cc1cccc(-c2ccccc2S(=O)(=O)NC#N)c1 [Example 4, Ethyl 2-butyl-5-methylsulfanyl-3-(2′-cyanoaminosulfonyl-biphenyl-3-ylmethyl)-3H-imidazole-4-carboxylate] | 39.7 |
| 244 °C (dec.) | CCCCc1nc(SC)c(C(=O)OCC)n1Cc1ccc(-c2ccc(S(=O)(=O)NC#N)cc2)cc1 [Example 3, Ethyl 2-butyl-5-methylsulfanyl-3-(4′-cyanoaminosulfonylbiphenyl-4-ylmethyl)-3H-imidazole-4-carboxylate] | 74.1 |
| 116 °C (dec.) | CCCCc1nc(SC)c(C(=O)OCC)n1Cc1ccccc1-c1ccc(S(=O)(=O)NC#N)cc1 [Example 9, Ethyl 2-butyl-5-methylsulfanyl-3-(4′-cyanoaminosulfonyl-biphenyl-2-ylmethyl)-3H-imidazole-4-carboxylate] | 31.6 |
| 160 °C (dec.) | CCCCc1nc(SC)c(C(=O)OCC)n1Cc1cccc(-c2cc(S(=O)(=O)NC#N)ccc2C)c1 [Example 24, Ethyl 2-butyl-3-(2′-methyl-5′-cyanoaminosulfonylbiphenyl-3-yl-methyl)-5-methylsulfanyl-3H-imidazole-4-carboxylate] | 29.2 |
